Laboratory results published in PubChem BioAssay (NCI).
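All cell lines were grown in 96-well plates and treated with compound for 48 hours. GI50 marks 50% less growth. At the TGI there is no net growth.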

Assays:
Assay in all cases: DTP human tumour cell line panel, 48 h
HCT-116 colon = test system: HCT-116 colon
RPMI-8226 leukemia = test system: RPMI-8226 leukemia
SF-295 CNS = test system: SF-295 CNS
HCC-2998 colon = test system: HCC-2998 colon
UACC-62 melanoma = test system: UACC-62 melanoma
SNB-75 CNS = test system: SNB-75 CNS
SK-MEL-2 melanoma = test system: SK-MEL-2 melanoma
NCI-H460 lung = test system: NCI-H460 lung
OVCAR-3 ovarian = test system: OVCAR-3 ovarian
A498 renal = test system: A498 renal

| Compound | TGI (HCT-116 colon) | TGI (RPMI-8226 leukemia) | TGI (SF-295 CNS) | TGI (HCC-2998 colon) | TGI (UACC-62 melanoma) | TGI (SNB-75 CNS) | TGI (SK-MEL-2 melanoma) | TGI (NCI-H460 lung) | TGI (OVCAR-3 ovarian) | TGI (A498 renal) | GI50 (HCT-116 colon) | GI50 (RPMI-8226 leukemia) | GI50 (SF-295 CNS) | GI50 (HCC-2998 colon) | GI50 (UACC-62 melanoma) | GI50 (SNB-75 CNS) | GI50 (SK-MEL-2 melanoma) | GI50 (NCI-H460 lung) | GI50 (OVCAR-3 ovarian) | GI50 (A498 renal) |
| --- | --- | --- | --- | --- | --- | --- | --- | --- | --- | --- | --- | --- | --- | --- | --- | --- | --- | --- | --- | --- |
| CC1CC2=C(S(=O)(=O)c3ccccc3)CC(S(=O)(=O)c3ccccc3)(S(=O)(=O)c3ccccc3)CC21 (stereo unspecified) | > 100 µM | > 100 µM | > 100 µM | > 100 µM | > 100 µM | > 100 µM | > 100 µM | > 100 µM | > 100 µM | > 100 µM |  |  |  |  |  |  |  |  |  |  |
| CCOP(=O)(OCC)C(c1ccc(F)cc1)N(C(=O)NC(F)(F)F)c1cccc(C(F)(F)F)c1 (stereo unspecified) | > 100 µM | > 100 µM | > 100 µM | > 100 µM | > 100 µM | > 100 µM | > 100 µM | > 100 µM | > 100 µM | > 100 µM |  |  |  |  |  |  |  |  |  |  |
| COc1ccccc1CNCCCN1C(=O)c2ccc3c4c(ccc(c24)C1=O)C(=O)N(CCCNCCNCCCN)C3=O | 3.04 µM | > 100 µM | 12.6 µM | 10.3 µM | 3.82 µM | 14.8 µM | 6.49 µM | 6.47 µM | 5.65 µM | 20.1 µM | 0.717 µM | 10.9 µM | 2.77 µM | 2.25 µM | 1.68 µM | 3.07 µM | 2.67 µM | 2.08 µM | 2160 nM | 5.01 µM |
| COc1cc2oc(-c3ccc(O)cc3)c(OC)c(=O)c2c(O)c1OC | > 100 µM |  | > 100 µM | 72.8 µM | > 100 µM | > 100 µM | > 100 µM | > 100 µM | > 100 µM | > 100 µM | 34.8 µM |  | 36.1 µM | 18.8 µM | 79.3 µM | 45.2 µM | 39.2 µM | 41.1 µM | > 100000 nM | 11 µM |
| C/C(=N/NC(N)=S)c1ccc[nH]1 | > 100 µM | > 100 µM | > 100 µM | > 100 µM | > 100 µM | > 100 µM | > 100 µM | > 100 µM | > 100 µM | > 100 µM |  |  |  |  |  |  |  |  |  |  |
| CCOC(=O)CNC(=O)N(CC)C12CC3CC(CC(C3)C1)C2 | 297 µM | 316 µM | 304 µM | 402 µM | 218 µM | 361 µM | 205 µM | 406 µM | 287 µM | 274 µM |  |  |  |  |  |  |  |  |  |  |
| C[C@@H]1Nc2cc(NC(=O)OCCF)nc(N)c2N=C1c1ccccc1 | > 100 µM | < 0.0001 µM | 20.1 µM |  | > 100 µM | > 100 µM |  |  | < 0.0001 µM |  |  |  |  |  |  |  |  |  |  | < 0.0001 µM |
| COc1ccc(S(=O)(=O)c2ccccc2[N+](=O)[O-])cc1 | > 100 µM | > 100 µM | > 100 µM | > 100 µM | > 100 µM | > 100 µM | > 100 µM | > 100 µM | > 100 µM | > 100 µM |  |  |  |  |  |  |  |  |  |  |
| COCc1nc2c(OC)c(-c3nc4nc(N5CCN(C)CC5)ccc4[nH]3)cc(OC)c2n1C | > 100 µM | 59.1 µM | 92.9 µM | 32.4 µM | 41.1 µM | 64.9 µM | 41.9 µM | 78.8 µM | > 100 µM |  |  |  |  |  |  |  |  |  |  |  |
| Clc1ccc(C[P+](c2ccccc2)(c2ccccc2)c2ccccc2)c(Cl)c1 | 10.3 µM | 5.31 µM | 12.3 µM | 15.1 µM | 12.6 µM | 7.54 µM | 7.71 µM | 11.8 µM | 13.8 µM | 30.6 µM |  |  |  |  |  |  |  |  |  |  |
| CCOC(=O)c1ccc(N[C@@H]2c3cc4c(cc3C(c3cc(OC)c(O)c(OC)c3)[C@H]3C(=O)OCC32)OCO4)cc1O (stereo partly specified) | 8.26 µM | 4.77 µM | 2.96 µM | 3.97 µM | 2.4 µM | > 23.2 µM | 1.83 µM | 0.822 µM | 8.75 µM | 2.81 µM |  |  |  |  |  |  |  |  |  |  |
| CCOC(=O)Cn1c(=O)ccn(COCCO)c1=O |  | > 100 µM |  | > 100 µM |  | > 100 µM | > 100 µM | > 100 µM | > 100 µM | > 100 µM |  |  |  |  |  |  |  |  |  |  |
| COCCCNc1nc(N)c(C#N)c(C#N)c1C#N | > 10 µM | > 10 µM | > 10 µM | > 10 µM | > 10 µM | > 10 µM | > 10 µM | > 10 µM | > 10 µM | > 10 µM |  |  |  |  |  |  |  |  |  |  |
